{
  "source": "patent US6998391B2",
  "about": "“Method for treating diseases associated with abnormal kinase activity” (SuperGen.Inc., priority 2002, dated 2006)",
  "origin": "cited, not measured here",
  "key": {"[1]": {"system": "prostate cancer cells and osteoblasts", "details": "various in vitro and in vivo models"}, "[2]": {"system": "platelet-derived growth factor receptor, fibroblast growth factor receptor, and insulin receptor", "details": "even at high concentrations"}, "[3]": {"system": "erbB receptor tyrosine kinase family", "details": "human cancer cell lines"}, "Syk [4]": {"system": "Syk"}, "ERK1": {"system": "ERK1", "details": "low doses"}, "tumor microvessels": {"system": "tumor microvessels", "details": "mouse, in vivo"}, "JAK3": {"target": "T1, JAK3 (Homo sapiens, UniProt P52333)", "T1 sequence (P52333 1-1124)": "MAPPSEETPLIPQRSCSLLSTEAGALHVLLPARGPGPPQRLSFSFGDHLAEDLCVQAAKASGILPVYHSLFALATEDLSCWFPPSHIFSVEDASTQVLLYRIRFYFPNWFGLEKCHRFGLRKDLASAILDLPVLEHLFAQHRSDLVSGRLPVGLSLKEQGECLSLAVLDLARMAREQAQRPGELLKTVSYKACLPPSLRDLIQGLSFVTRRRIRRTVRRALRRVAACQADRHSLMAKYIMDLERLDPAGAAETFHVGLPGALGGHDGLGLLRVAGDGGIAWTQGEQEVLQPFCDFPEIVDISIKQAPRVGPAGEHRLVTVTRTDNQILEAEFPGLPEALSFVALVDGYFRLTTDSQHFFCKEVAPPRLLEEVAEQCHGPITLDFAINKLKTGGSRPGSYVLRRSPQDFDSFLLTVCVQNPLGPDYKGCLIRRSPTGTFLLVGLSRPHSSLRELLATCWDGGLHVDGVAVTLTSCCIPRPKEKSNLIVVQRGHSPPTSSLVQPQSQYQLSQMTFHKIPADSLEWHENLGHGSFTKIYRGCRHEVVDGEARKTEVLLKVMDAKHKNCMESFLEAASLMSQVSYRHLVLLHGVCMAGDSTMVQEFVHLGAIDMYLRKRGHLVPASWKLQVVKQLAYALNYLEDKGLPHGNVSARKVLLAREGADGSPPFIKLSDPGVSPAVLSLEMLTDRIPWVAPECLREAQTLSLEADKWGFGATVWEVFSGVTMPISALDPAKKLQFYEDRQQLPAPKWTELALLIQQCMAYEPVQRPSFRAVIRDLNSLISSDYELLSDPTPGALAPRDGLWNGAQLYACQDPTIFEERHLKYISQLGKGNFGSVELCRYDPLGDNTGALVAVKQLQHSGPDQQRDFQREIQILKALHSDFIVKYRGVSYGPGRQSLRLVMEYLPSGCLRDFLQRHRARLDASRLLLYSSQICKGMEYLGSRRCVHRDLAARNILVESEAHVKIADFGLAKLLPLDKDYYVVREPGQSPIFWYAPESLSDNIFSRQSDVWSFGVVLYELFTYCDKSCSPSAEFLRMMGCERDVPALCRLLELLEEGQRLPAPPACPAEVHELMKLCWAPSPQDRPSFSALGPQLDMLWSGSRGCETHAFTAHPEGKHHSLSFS", "details": "dose-dependent fashion"}, "ZAP-70": {"target": "T2, ZAP-70 (Homo sapiens, UniProt P43403)", "T2 sequence (P43403 1-619)": "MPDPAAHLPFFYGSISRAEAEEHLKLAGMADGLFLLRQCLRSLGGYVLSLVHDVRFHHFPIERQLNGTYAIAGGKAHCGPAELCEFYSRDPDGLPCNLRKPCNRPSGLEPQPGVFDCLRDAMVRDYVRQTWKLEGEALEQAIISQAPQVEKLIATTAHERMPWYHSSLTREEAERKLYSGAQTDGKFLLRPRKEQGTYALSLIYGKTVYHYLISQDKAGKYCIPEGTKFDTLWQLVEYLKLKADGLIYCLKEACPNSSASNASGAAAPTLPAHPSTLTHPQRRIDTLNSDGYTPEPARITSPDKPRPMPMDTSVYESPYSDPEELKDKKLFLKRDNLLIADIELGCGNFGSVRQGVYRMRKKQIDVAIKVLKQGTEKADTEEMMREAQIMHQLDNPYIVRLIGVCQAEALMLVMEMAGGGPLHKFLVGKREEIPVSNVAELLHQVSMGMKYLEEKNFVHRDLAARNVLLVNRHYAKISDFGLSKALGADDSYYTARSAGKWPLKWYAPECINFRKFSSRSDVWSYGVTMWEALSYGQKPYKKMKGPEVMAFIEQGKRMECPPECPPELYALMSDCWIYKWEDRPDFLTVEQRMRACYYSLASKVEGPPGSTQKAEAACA"}, "Lck": {"target": "Lck (Homo sapiens, UniProt P06239)", "sequence (P06239 whole entry, species assumed)": "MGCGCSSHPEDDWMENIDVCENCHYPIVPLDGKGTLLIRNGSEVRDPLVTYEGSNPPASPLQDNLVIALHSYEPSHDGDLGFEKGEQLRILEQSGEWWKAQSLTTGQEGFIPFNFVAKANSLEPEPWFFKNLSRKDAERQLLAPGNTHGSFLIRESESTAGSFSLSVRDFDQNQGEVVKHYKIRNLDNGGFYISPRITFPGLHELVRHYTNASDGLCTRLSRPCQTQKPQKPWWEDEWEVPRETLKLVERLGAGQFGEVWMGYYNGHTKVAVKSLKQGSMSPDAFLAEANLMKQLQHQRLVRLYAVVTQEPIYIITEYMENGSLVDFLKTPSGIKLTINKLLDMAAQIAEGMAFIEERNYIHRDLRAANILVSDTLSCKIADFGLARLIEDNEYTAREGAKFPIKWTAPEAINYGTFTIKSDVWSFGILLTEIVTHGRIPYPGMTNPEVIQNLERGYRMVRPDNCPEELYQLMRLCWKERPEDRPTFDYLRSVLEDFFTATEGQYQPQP"}, "Syk [5]": {"target": "Syk (Homo sapiens, UniProt P43405)"}, "[6]": {"details": "patients with chronic phase CML"}},
  "note": "Where a name gives a salt, the structure may show the parent alone. Read-outs that look alike come from different tables or passages of the source. Where no end group is shown, it is not given here.",
  "data": [
    {"compound": "CO[C@]1(CO)C[C@H]2O[C@]1(C)n1c3ccccc3c3c4c(c5c6ccccc6n2c5c31)C(=O)NC4", "note": "[CEP-75 1]", "values": [
      {"measurement": "apoptosis of prostate cancer cells and osteoblasts", "setting": "[1]", "value": "selectively induce apoptosis"}
    ]},
    {"compound": "C[C@]12O[C@H](C[C@]1(O)CO)n1c3ccccc3c3c4c(c5c6ccccc6n2c5c31)CNC4=O", "note": "[CEP-701]", "values": [
      {"measurement": "apoptosis of prostate cancer cells and osteoblasts", "setting": "[1]", "value": "selectively induce apoptosis"}
    ]},
    {"compound": "C=CC(=O)Nc1cc2c(Nc3ccc(F)c(Cl)c3)ncnc2cc1OCCCN1CCOCC1", "note": "[CI-1033]", "values": [
      {"measurement": "inhibition of tyrosine kinase activity of other receptors", "setting": "[2]", "value": "without inhibiting"},
      {"measurement": "inhibition of tyrosine kinase activity", "setting": "[3]", "value": "prompt, potent, and sustained inhibition"}
    ]},
    {"compound": "Cc1ccc2c(=O)c3ccccc3n(CCCN)c2c1C.O=C(O)C(=O)O", "note": "[ER-27319, 3,4-dimethyl-10-(3-aminopropyl)-9-acridone oxalate]", "values": [
      {"measurement": "FceRI-mediated degranulation, tyrosine phosphorylation of Syk", "setting": "Syk [4]; intact mast cells, not Lyn", "value": "inhibits"}
    ]},
    {"compound": "Cc1ccc(NC(=O)c2ccc(CN3CCN(C)CC3)cc2)cc1Nc1nccc(-c2cccnc2)n1", "note": "[Imatinib mesylate]", "values": [
      {"measurement": "complete cytogenetic response", "setting": "CML patients; accelerated phase CML", "value": 14, "unit": "%"},
      {"measurement": "complete cytogenetic response maintained for four weeks", "setting": "CML patients; accelerated phase CML", "value": 4, "unit": "%"},
      {"measurement": "remissions", "setting": "CML patients; accelerated phase CML patients", "value": 63, "unit": "%"},
      {"measurement": "complete cytogenetic response", "setting": "CML patients; blast phase CML", "value": 5, "unit": "%"},
      {"measurement": "complete cytogenetic response maintained for four weeks", "setting": "CML patients; blast phase CML", "value": 1, "unit": "%"},
      {"measurement": "remissions", "setting": "CML patients; blast phase patients", "value": 26, "unit": "%"},
      {"measurement": "complete cytogenetic response", "setting": "CML patients; chronic phase CML", "value": 30, "unit": "%"},
      {"measurement": "complete cytogenetic response maintained for four weeks", "setting": "CML patients; chronic phase CML", "value": 16, "unit": "%"},
      {"measurement": "complete hematologic response", "setting": "CML patients; [6]", "value": 88, "unit": "%"},
      {"measurement": "major cytogenetic response", "setting": "CML patients; [6]", "value": 49, "unit": "%"}
    ]},
    {"compound": "COc1cccc(-c2cc(=O)c3ccccc3o2)c1N", "note": "[PD98059]", "values": [
      {"measurement": "ERK5/BMK1 pathway inhibition", "setting": "ERK5", "value": "inhibited"},
      {"measurement": "cyclin D1 expression and cell proliferation", "setting": "ERK1/2 pathway", "value": "prevented cyclin D1 expression and inhibits cell proliferation"}
    ]},
    {"compound": "O=C(NOCC1CC1)c1ccc(F)c(F)c1Nc1ccc(I)cc1Cl", "note": "[PD184352]", "values": [
      {"measurement": "ERK1 activity", "setting": "ERK1", "value": "abolished"},
      {"measurement": "effect on ERK5", "setting": "ERK5; low doses", "value": "no effect"}
    ]},
    {"compound": "Oc1cc(O)cc(/C=C/c2ccc(O)c(O)c2)c1", "note": "[Piceatannol, 3,4,3′,5′-tetrahydroxy-trans-stilbene]", "values": [
      {"measurement": "FceRI-mediated IP3 production, serotonin secretion, membrane ruffling and cell spreading", "setting": "Syk [4]; by inhibiting Syk", "value": "inhibits"}
    ]},
    {"compound": "Cc1[nH]c(/C=C2\\C(=O)Nc3ccccc32)c(C)c1CCC(=O)O", "note": "[SU6668]", "values": [
      {"measurement": "time to apoptosis in tumor microvessels after initiation of treatment", "setting": "tumor microvessels", "value": "≤ 6", "unit": "h"},
      {"measurement": "time to dose-dependent decreases in tumor microvessel density after first treatment", "setting": "tumor microvessels", "value": "≤ 3", "unit": "days"}
    ]},
    {"compound": "N#CC(=C(/N)Sc1ccccc1N)/C(C#N)=C(\\N)Sc1ccccc1N", "note": "[U0126]", "values": [
      {"measurement": "ERK5/BMK1 pathway inhibition", "setting": "ERK5", "value": "inhibited"},
      {"measurement": "cyclin D1 expression and cell proliferation", "setting": "ERK1/2 pathway", "value": "prevented cyclin D1 expression and inhibits cell proliferation"}
    ]},
    {"compound": "COc1cc2ncnc(Nc3cc(Br)c(O)c(Br)c3)c2cc1OC", "note": "[WHI-P97, 4-(3′,5′-dibromo-4′-hydroxylphenyl)-amino-6,7-dimethoxyquinazoline]", "values": [
      {"measurement": "JAK3 inhibition", "setting": "JAK3", "value": "inhibited JAK3"}
    ]},
    {"compound": "COc1cc2ncnc(Nc3ccc(O)c(Br)c3)c2cc1OC", "note": "[WHI-P 154, 4-(3′-bromo-4′-hydroxylphenyl)-amino-6,7-dimethoxyquinazoline]", "values": [
      {"measurement": "JAK3 inhibition", "setting": "JAK3", "value": "inhibited JAK3"}
    ]},
    {"compound": "KLILFLLL", "values": [
      {"measurement": "inhibition of ZAP-70", "setting": "ZAP-70", "value": "competitive inhibitor"},
      {"measurement": "inhibition of Lck", "setting": "Lck", "value": "poor inhibitor"},
      {"measurement": "inhibition of Syk", "setting": "Syk [5]", "value": "poor inhibitor"}
    ]}
  ]
}
